Results reported in patent US20080050755A1, “Method for screening for chemotherapeutic treatments for cancer” (priority 2000, published 2008).

Test system: Tcf/Lef reporter activity (endogenous β-catenin) in 293T cells
Experiment: Tcf/Lef reporter assay (pTOPFLASH/pFOPFLASH) in adriamycin-treated 293T cells
Format: cell-based
Details: 293T cells treated with 1 µg/ml adriamycin 8 hours after transfection for 16 hours; FIG. 6E
Description: FIGS. 6A, 6B, 6C, and 6E illustrate that Siah-1 mediates p53-induced degradation of β-catenin. […] 293T cells were transiently co-transfected with an internal control (pEGFP) and the indicated plasmids. The amount of DNA in each transfection was kept constant by the addition of an appropriate amount of empty expression vector. Whole cell lysates were subjected to Western analysis. Blots were probed with mouse monoclonal antibodies to the Myc epitope tag (upper panel) and GFP (lower panel). FIG. 6C illustrate the pulse-chase analysis of ectopically expressed Myc-tagged β-catenin. […] Immunoprecipitated Myc-β-catenin was subjected to SDS-PAGE and dried gels were analyzed with a PhosphorImager. […]
Cell culture, transfection, reporter assay, co-immunoprecipitation and immmunoblotting. […] Luciferase and β-galactosidase activity was measured 24 hours after transfecton. Tcf/Lef reporter activity was determined as described. […] The whole cell extract (WCE) was immunoprecipitated using a mouse monoclonal antibody specific for the amino-terminus of pAPC (Ab-5, Oncogene Research) or a control mouse IgG, and associated Myc-Siah-1 protein was detected by immunoblotting using an anti-Myc monoclonal antibody (9E10). The pAPC in WCE (20 µg) and immunoprecipitates was detected using an anti-APC mouse monoclonal antibody (Ab-1, Oncogene Research). […]

## COc1cccc2c1C(=O)c1c(O)c3c(c(O)c1C2=O)C[C@@](O)(C(=O)CO)C[C@@H]3O[C@H]1C[C@H](N)[C@H](O)[C@H](C)O1 [adriamycin]
  Tcf/Lef reporter activity (TOP/FOP): decreased Tcf/Lef reporter activity
